Results: US4670265A, “Aloe emodin and other anthraquinones and anthraquinone-like compounds from plants virucidal against herpes simplex viruses” (priority 1984, dated 1987)

System: HSV-1 (KOS strain)
Assay: Plaque Reduction Assay (PRA) for anti-viral activity, HSV-1
Type: cell-based, herpes simplex virus type 1 (KOS strain)
Details: product of reduction of Aloe emodin
Procedure: The extract has a direct virucidal effect on HSV under the standardly accepted assay conditions employed. This effect is demonstrable by mixing the test extract directly with HSV and incubating the mixture for 15 minutes at 37° C., then diluting the mixture and assaying for the amount of viable HSV capable of producing plaques in an in vitro cell culture system. A plaque is defined as a visible, localized destruction of cells in culture produced by a single infectious virus particle or plaque forming unit and is the most sensitive assay in virology for quantitating viruses. Depending on the type and concentration of the test extract used, complete inactivation of HSV plaque forming units can be achieved in 15 minutes or less.
Material for testing was obtained from Aloe plants using either whole leaf homogenates, sap or gel. Other materials for testing included dried leaves of Aloe vera and Senna, dried bark of Frangula and Cascara, dried rhizomes of Rhubarb and a commercial preparation of Aloin. All samples were tested for anti-viral activity by a Plaque Reduction Assay (PRA) using monolayer cultures of Vero (African Green Monkey Kidney) cells grown in MEM+5% calf serum. […] After adsorption, the inoculum was removed, a methyl cellulose/MEM overlay medium was added and after three days incubation the number of plaques per dish counted and averaged. […]

With `O=C1c2ccccc2Cc2ccccc21` [anthrone] the “anti-viral activity (in words)” value was “loss of anti-viral activity”.
